Laboratory results from patent US9669003B2, “Use of flavone and flavanone derivatives in preparation of sedative and hypnotic drugs” (priority 2012, dated 2017).
Marks after values point to notes of the source that are not given here.

Tests used:
Format in all cases: in vivo
[1] = test system: Kunming mice; experiment: Influence on autonomic activity of normal mice (ZIL-2 mice autonomic activity meter, counts within 10 min); conditions: intragastric, x ± s, n = 10; for Times of activities in 1 h after drug administration/10 min: 1 h after administration; for Times of activities in 2 h after drug administration/10 min: 2 h after administration; for Times of activities in 24 h after drug administration/10 min: 24 h after administration
Method in brief: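 Activity counts during a 10-min window were taken at 1, 2 and 24 h after dosing in groups of 10 mixed-sex Kunming mice. Compounds were given in 0.5% CMC-Na at 25, 50 or 100 mg/kg. Statistics used Levene's homogeneity test, ANOVA and Dunnett's multiple comparisons.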

[2] = test system: Kunming mice; experiment: Influence on hypnosis effect with pentobarbital sodium doses below the threshold (25 mg/kg i.p.); conditions: pentobarbital sodium 25 mg/kg i.p. 60 min later, sleep observed in 30 min, n = 10
Method in brief: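 Percentage of mice sleeping within 30 min after subthreshold pentobarbital sodium (25 mg/kg i.p.), defined by loss of righting reflex over 1 min, analysed by χ2. Compound in 0.5% CMC-Na given intragastrically at 25/50/100 mg/kg 60 min before; groups of 10 Kunming mice, both sexes.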

[3] = test system: Kunming mice; experiment: Influence on hypnosis effect with pentobarbital sodium doses at the threshold (50 mg/kg i.p.); conditions: pentobarbital sodium 50 mg/kg i.p. 60 min later, x ± s, n = 10
Method in brief: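 Pentobarbital sodium (0.3%, 50 mg/kg i.p.) injected 60 min after a single intragastric dose (25, 50, 100 mg/kg, 0.5% CMC-Na vehicle) in Kunming mice, 10 per group, sexes balanced. Onset and length of sleep (righting reflex lost over 1 min) analysed by ANOVA; sleeping incidence by χ2 test.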

[4] = test drug 25 mg/kg intragastric single dose
[5] = test drug 50 mg/kg intragastric single dose
[6] = test drug 100 mg/kg intragastric single dose
[7] = 25 mg/kg intragastric single dose
[8] = 50 mg/kg intragastric single dose
[9] = 100 mg/kg intragastric single dose

| Compound | Times of activities in 1 h after drug administration/10 min ([1]; 25 mg/kg) | Times of activities in 2 h after drug administration/10 min ([1]; 25 mg/kg) | Times of activities in 24 h after drug administration/10 min ([1]; 25 mg/kg) | Times of activities in 1 h after drug administration/10 min ([1]; 50 mg/kg) | Times of activities in 2 h after drug administration/10 min ([1]; 50 mg/kg) | Times of activities in 24 h after drug administration/10 min ([1]; 50 mg/kg) | Times of activities in 1 h after drug administration/10 min ([1]; 100 mg/kg) | Times of activities in 2 h after drug administration/10 min ([1]; 100 mg/kg) | Times of activities in 24 h after drug administration/10 min ([1]; 100 mg/kg) | Number of sleeping animals [2, 4] | rate of sleeping (%) [2, 4] | Number of sleeping animals [2, 5] | rate of sleeping (%) [2, 5] | Number of sleeping animals [2, 6] | rate of sleeping (%) [2, 6] | duration of sleep [3, 7] | time to sleep [3, 7] | duration of sleep [3, 8] | time to sleep [3, 8] | duration of sleep [3, 9] | further results |
| --- | --- | --- | --- | --- | --- | --- | --- | --- | --- | --- | --- | --- | --- | --- | --- | --- | --- | --- | --- | --- | --- |
| C=Cc1c(C#N)cc(-c2cc(=O)c3c(C=CC)cc(Cc4ccccc4)cc3o2)cc1[N+](=O)[O-] [Example 20] | 320.3 ± 49.7 /10 min | 293.6 ± 45.1 /10 min | 317.4 ± 79.6 /10 min | 283.7 ± 51.3 /10 min | 278.6 ± 47.5 /10 min | 305.2 ± 75.4 /10 min | 267.2 ± 55.3 /10 min | 250.3 ± 47.1 /10 min | 305.7 ± 79.7 /10 min | 4 | 40* % | 6 | 60** % | 6 | 60** % | 38.67 ± 21.87 min | 4.33 ± 1.58 min | 66.34 ± 22.15 min | 3.36 ± 1.20 min | 68.09 ± 29.56 min | time to sleep [3, 9]: 3.18 ± 1.10 min |
| COc1ccc(-c2cc(=O)c3cc(OC)c(OC)c(OC)c3o2)cc1OC [Example 27] | 291.3 ± 52.1 /10 min | 282.2 ± 41.5 /10 min | 293.6 ± 82.9 /10 min | 169.6 ± 51.3 /10 min | 193.2 ± 56.4 /10 min | 295.7 ± 92.3 /10 min | 124.2 ± 39.4 /10 min | 138.9 ± 48.9 /10 min | 278.6 ± 92.7 /10 min | 5 | 50** % | 6 | 60** % | 7 | 70** % | 31.32 ± 22.99 min | 4.88 ± 1.89 min | 60.34 ± 16.90 min | 4.15 ± 1.65 min | 62.15 ± 33.37 min | time to sleep [3, 9]: 3.73 ± 1.47 min |
| 6,7,8,4′-tetramethoxyl-flavone [Example 6] | 330.1 ± 51.2 /10 min | 314.5 ± 56.7 /10 min | 338.1 ± 96.3 /10 min | 286.7 ± 61.7 /10 min | 279.5 ± 48.2 /10 min | 311.5 ± 91.5 /10 min | 238.3 ± 36.3 /10 min | 249.8 ± 45.8 /10 min | 308.2 ± 82.7 /10 min | 3 | 30% | 5 | 50** % | 6 | 60** % | 29.81 ± 21.65 min | 5.51 ± 1.39 min | 47.21 ± 22.93 min | 4.20 ± 1.40 min | 55.33 ± 19.32 min | time to sleep [3, 9]: 3.91 ± 2.16 min |
| COc1cc(-c2cc(=O)c3c(OC)c(OC)c(OC)c(OC)c3o2)cc(OC)c1OC [Example 15, 5,6,7,8,3′,4′,5′-heptamethoxyl-flavone] | 287.1 ± 39.1 /10 min | 255.1 ± 42.9 /10 min | 308.5 ± 75.2 /10 min | 254.7 ± 41.2 /10 min | 239.9 ± 42.6 /10 min | 317.4 ± 95.6 /10 min | 179.6 ± 44.3 /10 min | 152.5 ± 36.9 /10 min | 287.8 ± 89.1 /10 min | 3 | 30% | 6 | 60** % | 8 | 80*** % | 39.93 ± 15.22 min | 4.31 ± 1.65 min | 51.53 ± 21.35 min | 3.53 ± 1.22 min | 58.25 ± 21.48 min | time to sleep [3, 9]: 3.29 ± 1.58 min |
